# Experimental data reported in patent US20150297619A1, “METHODS AND COMPOSITIONS FOR PRESERVING THE MUCOSAL BARRIER” (priority 2014, published 2015).
# What was measured:
# [1] = test system: intestinal villi cells; assay: TUNEL labeling of ischemic intestine (apoptosis); set-up: species or system rat; settings: after 2 hrs ex vivo ischemia
# Text: To assess the level of apoptosis after ischemia, in situ terminal transferase dUTP nick end labeling (TUNEL) labeling was completed using a kit (Trevigen, Gaithersburg, Md.) according to manufacturer's instructions. Sections were counterstained with 0.05% toluidine blue in 1% boric acid to contrast 3,3′-diaminobenzidine (DAB) positive nuclei (brown) from negatively stained nuclei (blue). Prior to mounting, all slides were dehydrated (70, 95, 100% ethanol) and cleaned with xylene. After air-drying overnight, sections were mounted using Hard Set Mounting Media (Vector Laboratories, Burlingame, Calif.). Digital images were captured with a 20× objective (numerical aperture 0.5) and digitally montaged together after background subtraction.
# [2] = test system: MMP-9 dimers, pro-MMP-2, MMP-2, MMP-1 or MMP-3; assay: Gelatin gel zymography of pre-ischemic intestinal homogenates renatured with inhibitor: MMP bands; format: biochemical, rat; settings: inhibitor in renaturing and developing buffer: tranexamic acid 20 mM, doxycycline 1 mg/ml, GM-6001 1 ug/ml
# Experimental: Gelatin Gel Zymography—Segments 2 and 7 from pre-ischemic intestines were homogenized (0.1 g tissue/ml homogenization buffer; PBS pH 7.4 with 0.5% hexadecyltrimethyl bromide) and centrifuged at 1.4×10^4 g for 20 minutes. Supernatants were stored at −80° C. until samples were processed. To assess the proteolytic activities of individual proteases in intestinal tissue samples, sample volumes of 1 μl (with 2 μg of protein) were separated by gel electrophoresis in SDS-PAGE gels containing 80 μg/ml gelatin. […] The molecular weights of the proteases were estimated by use of a standard protein ladder (Invitrogen). Gels were digitized and bands were analyzed by densitometry in ImageJ (rsbweb.nih.gov/ij/). […] These gels were compared to a concurrently run gel processed normally.
SMILES,apoptosis (TUNEL labeling) [1],"MMP gelatinase activity bands (220 kDa MMP-9 dimers, pro-MMP-2, MMP-2, 50 kDa band) [2]"
"O=C[C@H](O)[C@@H](O)[C@H](O)[C@H](O)CO [Glucose, glucose]",little apoptosis in the villi,–
NC[C@H]1CC[C@H](C(=O)O)CC1 [tranexamic acid],–,significantly reduce
